Among the data in patent publication US20120220562A1, “Anti-Viral Compounds” (ABBOTT LABAORATORIES, priority 2011, published 2012) are EC50 values, retold here.

In general, EC50 refers to the concentration needed to bring the measured effect to its halfway point.

For this test, the system named is HCV 1b-Con1 replicon. Put plainly: HCV 1b-Con1 replicon assay in the presence of 5% FBS. The test is classed as cell-based. As to conditions: Hepatitis C virus. A general note: A replicon is a self-replicating genome or part of one, used to study replication in cells.
On to `COC(=O)N[C@H](C(=O)N1[C@H](c2nc3cc([C@H]4CC[C@H](c5ccc6[nH]c([C@@H]7C[C@@H]8CCC[C@@H]8N7C(=O)[C@@H](NC(=O)OC)C7CCOCC7)nc6c5)N4c4cc(F)c(N5CCCCC5)c(F)c4)ccc3[nH]2)C[C@@H]2CCC[C@@H]21)C1CCOCC1` [Example 3.32, dimethyl ({(2R,5R)-1-[3,5-difluoro-4-(piperidin-1-yl)phenyl]pyrrolidine-2,5-diyl}bis{1H-benzimidazole-5,2-diyl(2S,3aS,6aS)hexahydrocyclopenta[b]pyrrole-2,1(2H)-diyl[(1S)-2-oxo-1-(tetrahydro-2H-pyran-4-yl)ethane-2,1-diyl]})biscarbamate], for which the concentration giving a half-maximal response (EC50) was under 0.1 nM.
The value for `COC(=O)N[C@H](C(=O)N1CCC[C@H]1c1nc2cc([C@H]3CC[C@@H](c4cc5[nH]c([C@@H]6CCCN6C(=O)[C@@H](NC(=O)OC)C(C)C)nc5cc4F)N3c3ccc(C(C)(C)C)cc3)c(F)cc2[nH]1)C(C)C` [Example 6.2, methyl {(2S)-1-[(2S)-2-{5-[(2R,5S)-1-(4-tert-butylphenyl)-5-{5-fluoro-2-[(2S)-1-(2S)-2-[(methoxycarbonyl)amino]-3-methylbutanoylpyrrolidin-2-yl]-1H-benzimidazol-6-yl}pyrrolidin-2-yl]-6-fluoro-1H-benzimidazol-2-yl}pyrrolidin-1-yl]-3-methyl-1-oxobutan-2-yl}carbamate] was under 0.1 nM.
For the compound `COC(=O)N[C@H](C(=O)N1CCC[C@H]1c1nc2cc([C@H]3CC[C@H](c4ccc5[nH]c([C@@H]6CCCN6C(=O)[C@@H](NC(=O)OC)C(C)C)nc5c4)N3c3cc(F)c(N4CCC(C(F)(F)F)CC4)c(F)c3)ccc2[nH]1)C(C)C` [Example 5.8, methyl {(2S)-1-[(2S)-2-{5-[(2R,5R)-1-{3,5-difluoro-4-[4-(trifluoromethyl)piperidin-1-yl]phenyl}-5-{2-[(2S)-1-{(2S)-2-[(methoxycarbonyl)amino]-3-methylbutanoyl}pyrrolidin-2-yl]-1H-benzimidazol-5-yl}pyrrolidin-2-yl]-1H-benzimidazol-2-yl}pyrrolidin-1-yl]-3-methyl-1-oxobutan-2-yl}carbamate], the concentration giving a half-maximal response (EC50) was under 0.1 nM.
To `COC(=O)N[C@H](C(=O)N1CCC[C@H]1c1nc2cc([C@H]3CC[C@H](c4ccc5nc([C@@H]6CCCN6C(=O)[C@@H](NC(=O)OC)C(C)C)[nH]c5c4)N3c3cc(F)c(N4CCCC(c5ccccc5)C4)c(F)c3)ccc2[nH]1)C(C)C` (stereo partly drawn) [Example 4.32, methyl {(2S)-1-[(2S)-2-{5-[(2R,5R)-1-[3,5-difluoro-4-(3-phenylpiperidin-1-yl)phenyl]-5-{2-[(2S)-1-{(2S)-2-[(methoxycarbonyl)amino]-3-methylbutanoyl}pyrrolidin-2-yl]-1H-benzimidazol-6-yl}pyrrolidin-2-yl]-1H-benzimidazol-2-yl}pyrrolidin-1-yl]-3-methyl-1-oxobutan-2-yl}carbamate] belongs under 0.1 nM; to `COC(=O)N[C@H](C(=O)N1CCC[C@H]1c1nc2cc([C@H]3CC[C@@H](c4cc5nc([C@@H]6CCCN6C(=O)[C@@H](NC(=O)OC)C(C)C)[nH]c5cc4F)N3c3cc(F)c(N4CCCCC4)c(F)c3)c(F)cc2[nH]1)C(C)C` [Example 4.52, methyl {(2S)-1-[(2S)-2-{5-[(2S,5R)-1-[3,5-difluoro-4-(piperidin-1-yl)phenyl]-5-{6-fluoro-2-[(2S)-1-{(2S)-2-[(methoxycarbonyl)amino]-3-methylbutanoyl}pyrrolidin-2-yl]-1H-benzimidazol-5-yl}pyrrolidin-2-yl]-6-fluoro-1H-benzimidazol-2-yl}pyrrolidin-1-yl]-3-methyl-1-oxobutan-2-yl}carbamate], under 0.1 nM.
